# In patent US20250114387A1, “PHARMACEUTICAL COMPOSITION COMPRISING ENAVOGLIFLOZIN FOR PREVENTING OR TREATING OBESITY IN CANINE ANIMALS” (DAEWOONG PHARMACEUTICAL CO., LTD., priority 2022, published 2025):
# Tested on: obese dogs
# Assay: Clinical trial in obese dogs: BCS, body weight, chest and waist circumference, resting energy requirement, fat thickness, body fat
# Assay type: in vivo
# Excerpt: Adult dogs which were naturally obese but otherwise healthy were selected regardless of breed, sex, and altered status, and informed consent was obtained from the dog owners for participation in the clinical trial.
# As a result of physical examination of all dogs (including body weight and BCS (a total of 9 levels), FIG. 1 and Table 1), those diagnosed as obese were selected. The BCS used to select dogs is classified into a total of 9 levels, and dogs with a BCS of level 6 or higher were selected, and detailed criteria are presented in Table 1 and FIG. 1.
# A total of 20 dogs were selected and divided into 4 groups with 5 dogs in each group: a normal obese control (OC); hereinafter, referred to as a control (OC)), an enavogliflozin 0.2-administered group, an enavogliflozin 0.5-administered group, and an enavogliflozin 1-administered group. The control was fed regular feed, and the enavogliflozin-administered groups were fed regular feed supplemented with enavogliflozin at doses of 0.2, 0.5, or 1 mg/kg, respectively. The feed was supplemented with enavogliflozin once a day for 8 weeks and given orally.
# Body weights (BW), chest circumferences, and waist circumferences were measured immediately before the first intake of enavogliflozin-supplemented feed, and once every two weeks for the next 10 weeks. The chest circumferences and waist circumferences were measured four times each at the thickest part of the chest and the thinnest part between the chest and hind legs, and an average size was calculated. Resting energy requirement (RER) was calculated using Equation 1 in the reference document (Brooks et al., Journal of the American Animal Hospital Association 50, 1-11. (2014)).
# Fat thicknesses were evaluated by measuring the perpendicular distance from the T10 spinal process to the skin by radiography (Titan 2000 X-ray system, COMED Medical Systems Co., Ltd., Seoul, Korea) on the first day of enavogliflozin administration, and on weeks 4, 8, and 10 of administration. Body fat was measured with a body fat meter every two weeks for a total of 10 weeks after the start of enavogliflozin administration.
# [1] = 0.2 mg/kg once a day oral for 8 weeks, week 0
# [2] = 0.2 mg/kg once a day oral for 8 weeks, week 2
# [3] = 0.2 mg/kg once a day oral for 8 weeks, week 4
# [4] = 0.2 mg/kg once a day oral for 8 weeks, week 6
# [5] = 0.2 mg/kg once a day oral for 8 weeks, week 8
# [6] = 0.2 mg/kg once a day oral for 8 weeks, week 10
# [7] = 0.5 mg/kg once a day oral for 8 weeks, week 0
# [8] = 0.5 mg/kg once a day oral for 8 weeks, week 2
# [9] = 0.5 mg/kg once a day oral for 8 weeks, week 4
# [10] = 0.5 mg/kg once a day oral for 8 weeks, week 6
# [11] = 0.5 mg/kg once a day oral for 8 weeks, week 8
# [12] = 0.5 mg/kg once a day oral for 8 weeks, week 10
# [13] = 1 mg/kg once a day oral for 8 weeks, week 0
# [14] = 1 mg/kg once a day oral for 8 weeks, week 2
# [15] = 1 mg/kg once a day oral for 8 weeks, week 4
# [16] = 1 mg/kg once a day oral for 8 weeks, week 6
# [17] = 1 mg/kg once a day oral for 8 weeks, week 8
# [18] = 1 mg/kg once a day oral for 8 weeks, week 10
# [19] = all enavogliflozin-administered groups
compound,measurement,setting,value
"OC[C@H]1O[C@@H](c2cc(Cc3ccc(C4CC4)cc3)c(Cl)c3c2CCO3)[C@H](O)[C@@H](O)[C@@H]1O [Enavogliflozin, enavogliflozin]","body fat percentage, rank among groups",0.2 mg/kg,lowest
same,Change rates of chest circumference,[1],100.00 ± 0.00%
same,Change rates of resting energy requirement,[1],100.00 ± 0.00%
same,Change rates of waist circumference,[1],100.00 ± 0.00%
same,Change rates of chest circumference,[2],99.20 ± 3.44%
same,Change rates of resting energy requirement,[2],96.98 ± 2.69%
same,Change rates of waist circumference,[2],100.53 ± 4.71%
same,Change rates of chest circumference,[3],97.16 ± 2.74%
same,Change rates of resting energy requirement,[3],93.41 ± 5.79%
same,Change rates of waist circumference,[3],97.39 ± 12.15%
same,Change rates of chest circumference,[4],95.08 ± 3.96%
same,Change rates of resting energy requirement,[4],95.21 ± 4.10%
same,Change rates of waist circumference,[4],98.96 ± 15.47%
same,Change rates of chest circumference,[5],96.08 ± 2.60%
same,Change rates of resting energy requirement,[5],94.64 ± 3.59 %
same,Change rates of waist circumference,[5],98.89 ± 11.98%
same,Change rates of chest circumference,[6],99.18 ± 3.01%
same,Change rates of resting energy requirement,[6],96.15 ± 4.75%
same,Change rates of waist circumference,[6],101.98 ± 10.78%
same,BCS compared to the control (OC),"0.2 mg/kg, at 4, 8, and 10 weeks after the start of administration, p<0.05",significantly lower than the control (OC)
same,resting energy requirement (RER) compared to the control (OC),"0.2 mg/kg, at 4 weeks and 8 weeks after the start of administration, p<0.05",significantly lower
same,body weight compared to the control (OC),"0.2 mg/kg, from 4 weeks after the start of administration, p<0.05",significantly lower than the control (OC)
same,"fat thickness change, significance","0.2 mg/kg, week 8 and week 10",significant at week 8 and week 10
same,body weight,0.5 mg/kg,decreasing at week 2 and week 4 of the trial and then slowly increasing
same,Change rates of chest circumference,[7],100.00 ± 0.00%
same,Change rates of resting energy requirement,[7],100.00 ± 0.00%
same,Change rates of waist circumference,[7],100.00 ± 0.00%
same,Change rates of chest circumference,[8],98.19 ± 4.31%
same,Change rates of resting energy requirement,[8],98.63 ± 0.72%
same,Change rates of waist circumference,[8],99.57 ± 1.71%
same,Change rates of chest circumference,[9],97.16 ± 3.23%
same,Change rates of resting energy requirement,[9],97.93 ± 1.00%
same,Change rates of waist circumference,[9],98.45 ± 4.94%
same,Change rates of chest circumference,[10],95.60 ± 4.55%
same,Change rates of resting energy requirement,[10],97.54 ± 2.73%
same,Change rates of waist circumference,[10],96.30 ± 3.83%
same,Change rates of chest circumference,[11],93.90 ± 3.11%
same,Change rates of resting energy requirement,[11],96.92 ± 2.00%
same,Change rates of waist circumference,[11],93.84 ± 5.54%
same,Change rates of chest circumference,[12],96.43 ± 2.76%
same,Change rates of resting energy requirement,[12],98.79 ± 2.30%
same,Change rates of waist circumference,[12],96.00 ± 4.72%
same,BCS,"0.5 mg/kg, entire experimental period",decreased during the entire experimental period
same,Change rates of chest circumference,[13],100.00 ± 0.00%
same,Change rates of resting energy requirement,[13],100.00 ± 0.00%
same,Change rates of waist circumference,[13],100.00 ± 0.00%
same,Change rates of chest circumference,[14],94.79 ± 6.67%
same,Change rates of resting energy requirement,[14],97.75 ± 2.32%
same,Change rates of waist circumference,[14],95.97 ± 11.67%
same,Change rates of chest circumference,[15],99.81 ± 2.43%
same,Change rates of resting energy requirement,[15],98.11 ± 2.18%
same,Change rates of waist circumference,[15],99.18 ± 8.09%
same,Change rates of chest circumference,[16],100.54 ± 4.98%
same,Change rates of resting energy requirement,[16],98.95 ± 2.07%
same,Change rates of waist circumference,[16],103.75 ± 10.54%
same,Change rates of chest circumference,[17],99.20 ± 4.49%
same,Change rates of resting energy requirement,[17],99.19 ± 4.05%
same,Change rates of waist circumference,[17],99.76 ± 12.53%
same,Change rates of chest circumference,[18],100.24 ± 5.15%
same,Change rates of resting energy requirement,[18],99.97 ± 6.15%
same,Change rates of waist circumference,[18],101.33 ± 14.44%
same,BCS compared to the control (OC),"1 mg/kg, at the end of the experiment",lower than the control (OC) at the end of the experiment
same,BCS compared to the control (OC),"1 mg/kg, during the experiment",slightly increased compared to the control (OC)
same,"BCS, body weight, body fat percentage, fat thickness, and chest and waist circumferences",8-week administration,reduced
same,fat thickness,"all administration groups (0.2, 0.5, 1 mg/kg)",decreased in all administration groups
same,chest circumference,[19],decreased
same,waist circumference,[19],decreased
same,body fat percentage,"all groups (0.2, 0.5, 1 mg/kg)",no significant differences
same,"anti-obesity results, comparison of doses",feed supplemented with 0.2 mg/kg,most effective results
